Values of other authors, collected in patent US6555140B1, “Composition and method for enhancing male fertility and libido” (priority 1999, dated 2003).

Tests used:
[1] = for share of the ingested amount metabolically degraded: transported from inside the intestine into the blood stream
[2] = in water

| SMILES | share of what is ingested metabolically available [1] | share of the ingested amount metabolically degraded [1] | Solubility [2] |
| --- | --- | --- | --- |
| NCCCNCCCCNCCCN [Spermine Free Base, Spermine] | about 70% | about 30% | Soluble in water up to 50 mg/ml |
| NCCCCNCCCN [Spermidine Free Base, Spermidine] | about 70% | about 30% | Soluble in water up to 50 mg/ml |
